The text below walks through data of article PMC6346587, “Glucose 6-phosphate dehydrogenase 6-phosphogluconolactonase: characterization of the Plasmodium vivax enzyme and inhibitor studies” (Malaria Journal, 2019).

One data set concerns the target PvG6PD (Plasmodium vivax, UniProt A5K3M1). The experiment in a line: PvG6PD enzyme inhibition assay (NADPH formation, absorbance 340 nm / fluorescence). The format is biochemical. As to conditions: for IC50 on PvG6PD: ellagic acid and derivatives. The procedure:
The G6PD activity of PfGluPho variants was measured spectrophotometrically as described for the wt enzyme. Kinetic characterization of PvG6PD was performed using the same assay system at an Evolution 300 spectrophotometer (Thermo Scientific, Dreieich, Germany). In brief, the initial reduction of NADP^+ to NADPH by PvG6PD was monitored by measuring the absorbance at 340 nm. The 500 µL reaction mixture contained 200 µM NADP^+ and varying concentrations of PvG6PD in an assay buffer of 100 mM Tris–HCl, pH 8.0, 10 mM MgCl2, and 0.5 mM EDTA at 25 °C. The reaction was started by adding 800 µM G6P. The KM for NADP^+ was determined by titrating NADP^+ from 2 to 400 µM at 800 µM G6P; the KM for G6P was measured accordingly by titrating G6P from 2 to 1200 µM at 200 µM NADP^+. KM values were calculated using GraphPad Prism. Since the KM for G6P was considerably higher than the value measured for PfGluPho [14], a concentration of 800 µM G6P was defined as substrate saturation for PvG6PD.
(§1) To identify potential inhibitors of PvG6PD, compounds with already known effects on PfGluPho (ellagic acid and derivatives, ML304) were tested. Additionally, several compound libraries of the Helmholtz Center for Infection Research, Brunswick, were screened against PfGluPho using the high-throughput-compatible assay systems described in Preuss et al.. […] Based on structure-activity relationship studies, a set of new potential G6PD inhibitors (Fig. 8) was then synthesized and assessed. First, the IC50 values of the compounds were determined, followed by mechanistic characterization of the mode of action. To test for selectivity of the compounds, the IC50 values of the compounds on PvG6PD, PfGluPho, and hG6PD were determined in parallel.
(§2) All measurements were performed in 96-well plates, half area (Greiner Bio-One, Frickenhausen, Germany) using a Tecan Infinite M200 plate reader (Maennedorf, Switzerland). The compounds were dissolved in 100% DMSO and afterwards diluted in assay buffer to the required concentrations. Different compound concentrations were added to a mixture of enzyme and NADP^+ in assay buffer. Concentrations of substrates differed depending on the enzyme; an overview is given in the Additional file 4. The reaction was started by adding G6P, and the increase of NADPH was monitored by measuring the absorbance at 340 nm. To increase the sensitivity of the assay, some measurements were reproduced, detecting the fluorescence of NADPH at ex340/em460. […] A negative control containing no compound was defined as 0% inhibition; a positive control lacking the substrate G6P was defined as 100% inhibition. For evaluations using GraphPad Prism and Microsoft Excel, only a linear increase in absorbance/fluorescence was considered. For the mechanistic characterization of the compounds, either NADP^+ or G6P were titrated at different compound concentrations around the IC50, while keeping the second substrate in saturation. The initial slope was plotted as Michaelis–Menten curves and Lineweaver–Burk plots using GraphPad Prism; KM values and Vmax were calculated with GraphPad Prism software.

The nature of data set [1]: Stability of compounds in enzyme assay buffer. In kind it is physicochemical. As to conditions: 100 mM Tris–HCl pH 8.0 assay buffer, DMSO stock.
Another data set deals with T1, PfGluPho (Plasmodium falciparum, UniProt Q8IKU0).
T1 construct: made in house
T1 sequence (Q8IKU0 1-910): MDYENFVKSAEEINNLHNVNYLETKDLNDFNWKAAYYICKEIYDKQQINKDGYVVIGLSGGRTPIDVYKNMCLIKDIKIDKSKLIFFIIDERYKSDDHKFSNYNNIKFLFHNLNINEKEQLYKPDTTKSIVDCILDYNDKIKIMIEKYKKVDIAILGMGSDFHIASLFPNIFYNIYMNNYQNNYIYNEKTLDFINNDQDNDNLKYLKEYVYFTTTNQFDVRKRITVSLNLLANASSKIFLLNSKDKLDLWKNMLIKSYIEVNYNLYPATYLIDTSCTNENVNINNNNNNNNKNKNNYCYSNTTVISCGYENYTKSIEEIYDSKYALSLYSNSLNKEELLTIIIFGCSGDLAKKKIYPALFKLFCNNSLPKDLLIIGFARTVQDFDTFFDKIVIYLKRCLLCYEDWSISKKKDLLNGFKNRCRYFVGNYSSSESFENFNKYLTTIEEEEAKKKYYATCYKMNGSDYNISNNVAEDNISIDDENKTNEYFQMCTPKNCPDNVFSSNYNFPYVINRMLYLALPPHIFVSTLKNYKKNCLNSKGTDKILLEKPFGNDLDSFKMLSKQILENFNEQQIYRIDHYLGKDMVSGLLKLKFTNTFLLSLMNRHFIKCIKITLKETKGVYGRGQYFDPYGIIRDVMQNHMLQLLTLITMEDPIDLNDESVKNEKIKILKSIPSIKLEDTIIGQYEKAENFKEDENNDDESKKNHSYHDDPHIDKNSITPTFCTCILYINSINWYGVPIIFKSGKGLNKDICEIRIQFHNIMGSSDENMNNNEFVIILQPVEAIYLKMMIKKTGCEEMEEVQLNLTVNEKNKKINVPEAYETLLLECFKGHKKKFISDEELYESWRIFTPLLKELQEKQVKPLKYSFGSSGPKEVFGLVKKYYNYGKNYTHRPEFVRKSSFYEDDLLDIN
The data set can be described thus: PfGluPho G6PD activity inhibition assay. The format is biochemical. The procedure:
as §1, §2

Another data set has as its target T2, hG6PD (Homo sapiens, UniProt P11413).
T2 construct: made in house
The experiment in a line: hG6PD enzyme inhibition assay. In kind it is biochemical. As to conditions: for IC50 on hG6PD relative to plasmodial enzymes (selectivity): compared with PfGluPho and PvG6PD. The procedure:
as §1, §2

Data set [2] deals with the molecule itself. The data set can be described thus: SEC; size exclusion chromatography of purified PfGluPho mutants under reducing conditions.
Setting [3] is: mean ± SD, at least two independent determinations, different enzyme batches, read-out: IC50 on PfGluPho.
Setting [4] is: mean ± SD, only one enzyme batch, read-out: IC50 on hG6PD.

Read-outs that look alike come from different tables or passages of the source.

PvG6PD, sequence (A5K3M1 entry or part of it): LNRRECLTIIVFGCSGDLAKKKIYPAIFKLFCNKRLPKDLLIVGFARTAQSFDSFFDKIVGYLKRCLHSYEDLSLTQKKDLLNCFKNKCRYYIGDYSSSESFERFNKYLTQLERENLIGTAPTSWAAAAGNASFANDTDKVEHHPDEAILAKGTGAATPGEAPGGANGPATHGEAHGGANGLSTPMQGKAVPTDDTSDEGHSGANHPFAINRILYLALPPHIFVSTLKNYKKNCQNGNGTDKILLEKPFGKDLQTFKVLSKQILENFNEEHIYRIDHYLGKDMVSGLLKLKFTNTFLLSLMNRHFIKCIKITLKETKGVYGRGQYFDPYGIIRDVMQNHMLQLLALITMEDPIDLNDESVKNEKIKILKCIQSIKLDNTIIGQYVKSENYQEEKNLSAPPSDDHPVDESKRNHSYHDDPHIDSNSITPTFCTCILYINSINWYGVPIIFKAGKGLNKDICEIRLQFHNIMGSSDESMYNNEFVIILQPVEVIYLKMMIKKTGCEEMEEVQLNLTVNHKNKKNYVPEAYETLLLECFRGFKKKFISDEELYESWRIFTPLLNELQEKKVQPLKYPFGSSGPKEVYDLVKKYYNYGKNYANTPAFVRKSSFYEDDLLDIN
T2 sequence (P11413 whole entry): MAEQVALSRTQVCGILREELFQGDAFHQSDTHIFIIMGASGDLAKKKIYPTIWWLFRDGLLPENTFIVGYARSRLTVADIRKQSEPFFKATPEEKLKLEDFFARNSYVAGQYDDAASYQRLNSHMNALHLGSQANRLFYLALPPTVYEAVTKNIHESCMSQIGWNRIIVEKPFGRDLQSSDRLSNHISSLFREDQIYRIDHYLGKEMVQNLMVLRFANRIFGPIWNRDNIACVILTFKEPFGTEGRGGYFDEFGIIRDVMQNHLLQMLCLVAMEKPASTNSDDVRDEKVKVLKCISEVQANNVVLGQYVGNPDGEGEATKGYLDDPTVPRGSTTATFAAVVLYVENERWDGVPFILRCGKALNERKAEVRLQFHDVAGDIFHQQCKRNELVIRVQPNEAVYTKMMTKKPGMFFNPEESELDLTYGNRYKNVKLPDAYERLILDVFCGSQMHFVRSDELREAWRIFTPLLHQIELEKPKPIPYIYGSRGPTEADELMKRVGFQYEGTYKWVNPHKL

`N#CC(Br)c1ncccn1` (stereo not shown) [2 (vz1731)]: the 50% inhibitory concentration (IC50) on PvG6PD is 2.1 ± 0.1 µM; on PfGluPho (setting [3]), 11.7 ± 9.9 µM; at hG6PD (setting [4]), 91.7 ± 35 µM. Also, the “Stability in the assay buffer / of dissolved compound” value in data set [1] is given as “only active when the powder was freshly dissolved”.

`N#CC(Br)c1ncccc1Cl` (stereo not shown) [4 (vz1732)]: the IC50 stood at 0.2 µM on PvG6PD, 0.9 ± 0.2 µM at PfGluPho (setting [3]) and 34.7 ± 21 µM on hG6PD (setting [4]). For the same molecule, the “Stability in the assay buffer / of dissolved compound” value in data set [1] is “only active when the powder was freshly dissolved”. At PfGluPho (both substrate G6P and coenzyme NADP+), the “Type of inhibition of PfGluPho against G6P and NADP+” value is given as “non-competitively”. Moreover, the “IC50 on hG6PD relative to plasmodial enzymes (selectivity)” value at hG6PD is “one to two orders of magnitude higher”.

On to `ClC=C(n1nnc2ccccc21)n1nnc2ccccc21` [8 (vz0882)], for which the IC50 came out at 12.8 ± 7.8 µM against PvG6PD and 18.1 ± 10.4 µM at PfGluPho (setting [3]). The “Stability in the assay buffer / of dissolved compound” value in data set [1] is “less stable”.

As for `O=C(O)C(Cl)(C=C(Cl)Cl)[N+](=O)[O-]` (stereo not shown) [10 (vz1204)], the IC50 on PvG6PD was 23.5 ± 3.7 µM; on hG6PD (setting [4]) it was greater than 100 µM.

`O=CC(Cl)=C(I)I` [13 (vz0288)]: the half-inhibitory concentration (IC50) at PvG6PD (mean ± SD, at least two independent determinations, different enzyme batches, read-out: IC50 on PvG6PD) was 23.3 ± 7.8 µM; on PfGluPho (setting [3]), 29.6 ± 23.2 µM; at hG6PD (setting [4]), greater than 100 µM.

As to `O=C(C(=C1N(Cc2ccc(Cl)nc2)CCN1Cc1ccc(Cl)nc1)[N+](=O)[O-])C(Cl)(Cl)[N+](=O)[O-]` [18 (vz0909)], the concentration for half-maximal inhibition (IC50) on PvG6PD worked out at 9.1 ± 2.8 µM; against PfGluPho it was 23.6 ± 14.3 µM; on hG6PD, 26 ± 1.8 µM. For the same molecule, the “Stability in the assay buffer / of dissolved compound” value in data set [1] is given as “less stable”.

`O=C(/C(=C1\N(Cc2ccc(Cl)nc2)CCN1Cc1cnc(Cl)s1)[N+](=O)[O-])C(Cl)(Cl)[N+](=O)[O-]` [19 (vz0914)]: the IC50 against PvG6PD turned out to be 5.6 ± 0.6 µM; against PfGluPho, 8.4 ± 8.4 µM; against hG6PD it was 29.6 ± 5 µM. In addition, the “Stability in the assay buffer / of dissolved compound” value in data set [1] is reported as “less stable”.

As for `O=[N+]([O-])C(C(Cl)=C(Cl)Cl)=C1N(c2ccccc2)CCN1c1ccccc1` [20 (vz0005)], the IC50 on PvG6PD, on PfGluPho (setting [3]) and on hG6PD (setting [4]) was greater than 100 µM in each case.

As to `C=C[S+]([O-])c1sc(Cl)c(N2CCN(c3c(Cl)sc([S+]([O-])C=C)c3[N+](=O)[O-])CC2)c1[N+](=O)[O-]` (stereo not shown) [21 (vz0527)], the IC50 is 0.2 ± 0.1 µM at PvG6PD, 1.7 ± 0.3 µM on PfGluPho and 8.3 ± 2.7 µM against hG6PD. In addition, the “Stability in the assay buffer / of dissolved compound” value in data set [1] is on record as “only active when the powder was freshly dissolved”. For the same molecule, the “IC50 on hG6PD relative to plasmodial enzymes (selectivity)” value against hG6PD is listed as “one to two orders of magnitude higher”.

`O=c1oc2c(O)c(O)c(O)c3c(=O)oc4c(O)c(O)c(O)c1c4c23` [CEA, coruleoellagic acid]: on PvG6PD, half-maximal inhibition (IC50) was put at 0.0444 ± 0.0019 µM and the “IC50 on PvG6PD” value was “lower nanomolar range”.

As for `O=c1oc2c(O)c(O)c(O)c3c(=O)oc4c(O)c(O)cc1c4c23` [FEA, flavellagic acid], on PvG6PD, the midpoint of inhibition, the IC50, lay at 0.0372 ± 0.0058 µM and the “IC50 on PvG6PD” value was “lower nanomolar range”.

B1: PfGluPho S315Y (enzyme)
chain: MDYENFVKSAEEINNLHNVNYLETKDLNDFNWKAAYYICKEIYDKQQINKDGYVVIGLSGGRTPIDVYKNMCLIKDIKIDKSKLIFFIIDERYKSDDHKFSNYNNIKFLFHNLNINEKEQLYKPDTTKSIVDCILDYNDKIKIMIEKYKKVDIAILGMGSDFHIASLFPNIFYNIYMNNYQNNYIYNEKTLDFINNDQDNDNLKYLKEYVYFTTTNQFDVRKRITVSLNLLANASSKIFLLNSKDKLDLWKNMLIKSYIEVNYNLYPATYLIDTSCTNENVNINNNNNNNNKNKNNYCYSNTTVISCGYENYTKYIEEIYDSKYALSLYSNSLNKEELLTIIIFGCSGDLAKKKIYPALFKLFCNNSLPKDLLIIGFARTVQDFDTFFDKIVIYLKRCLLCYEDWSISKKKDLLNGFKNRCRYFVGNYSSSESFENFNKYLTTIEEEEAKKKYYATCYKMNGSDYNISNNVAEDNISIDDENKTNEYFQMCTPKNCPDNVFSSNYNFPYVINRMLYLALPPHIFVSTLKNYKKNCLNSKGTDKILLEKPFGNDLDSFKMLSKQILENFNEQQIYRIDHYLGKDMVSGLLKLKFTNTFLLSLMNRHFIKCIKITLKETKGVYGRGQYFDPYGIIRDVMQNHMLQLLTLITMEDPIDLNDESVKNEKIKILKSIPSIKLEDTIIGQYEKAENFKEDENNDDESKKNHSYHDDPHIDKNSITPTFCTCILYINSINWYGVPIIFKSGKGLNKDICEIRIQFHNIMGSSDENMNNNEFVIILQPVEAIYLKMMIKKTGCEEMEEVQLNLTVNEKNKKINVPEAYETLLLECFKGHKKKFISDEELYESWRIFTPLLKELQEKQVKPLKYSFGSSGPKEVFGLVKKYYNYGKNYTHRPEFVRKSSFYEDDLLDIN
notes: source: E. coli, purified (size exclusion chromatography under reducing conditions); produced as described previously [14]
For the molecule B1, the “stoichiometry N” value in data set [2] came to 4.

B2: PfGluPho L395F (enzyme)
chain: MDYENFVKSAEEINNLHNVNYLETKDLNDFNWKAAYYICKEIYDKQQINKDGYVVIGLSGGRTPIDVYKNMCLIKDIKIDKSKLIFFIIDERYKSDDHKFSNYNNIKFLFHNLNINEKEQLYKPDTTKSIVDCILDYNDKIKIMIEKYKKVDIAILGMGSDFHIASLFPNIFYNIYMNNYQNNYIYNEKTLDFINNDQDNDNLKYLKEYVYFTTTNQFDVRKRITVSLNLLANASSKIFLLNSKDKLDLWKNMLIKSYIEVNYNLYPATYLIDTSCTNENVNINNNNNNNNKNKNNYCYSNTTVISCGYENYTKSIEEIYDSKYALSLYSNSLNKEELLTIIIFGCSGDLAKKKIYPALFKLFCNNSLPKDLLIIGFARTVQDFDTFFDKIVIYFKRCLLCYEDWSISKKKDLLNGFKNRCRYFVGNYSSSESFENFNKYLTTIEEEEAKKKYYATCYKMNGSDYNISNNVAEDNISIDDENKTNEYFQMCTPKNCPDNVFSSNYNFPYVINRMLYLALPPHIFVSTLKNYKKNCLNSKGTDKILLEKPFGNDLDSFKMLSKQILENFNEQQIYRIDHYLGKDMVSGLLKLKFTNTFLLSLMNRHFIKCIKITLKETKGVYGRGQYFDPYGIIRDVMQNHMLQLLTLITMEDPIDLNDESVKNEKIKILKSIPSIKLEDTIIGQYEKAENFKEDENNDDESKKNHSYHDDPHIDKNSITPTFCTCILYINSINWYGVPIIFKSGKGLNKDICEIRIQFHNIMGSSDENMNNNEFVIILQPVEAIYLKMMIKKTGCEEMEEVQLNLTVNEKNKKINVPEAYETLLLECFKGHKKKFISDEELYESWRIFTPLLKELQEKQVKPLKYSFGSSGPKEVFGLVKKYYNYGKNYTHRPEFVRKSSFYEDDLLDIN
notes: as for B1
Consider B2, for which the “stoichiometry N” value in data set [2] was found to be 4.
